Assay results as given in ChEMBL document CHEMBL1201862, “PubChem BioAssay data set” (2004).
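96-well plates; 48 h exposure; 5 concentrations. Endpoints by linear interpolation between flanking doses. Not reached: highest tested concentration assigned. GI50: concentration for 50% inhibition of growth.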 Calls of active or inactive are those of the source. Cut-off read from the data, not from the text of the source: active = GI50 up to about 1.1 µM and inactive = higher.

Tests used:
Assay in all cases: DTP human tumour cell line panel, 48 h
U-251 = test system: U-251
Hs-578T = test system: Hs-578T
DU-145 = test system: DU-145
KM12 = test system: KM12
A549 = test system: A549
OVCAR-5 = test system: OVCAR-5
M14 = test system: M14
MOLT-4 = test system: MOLT-4
HCC 2998 = test system: HCC 2998
NCI/ADR-RES = test system: NCI/ADR-RES
786-0 = test system: 786-0
UACC-62 = test system: UACC-62
SF-295 = test system: SF-295
HCT-15 = test system: HCT-15
OVCAR-8 = test system: OVCAR-8
BT-549 = test system: BT-549
LOX IMVI = test system: LOX IMVI
MCF7 = test system: MCF7
EKVX = test system: EKVX
UO-31 = test system: UO-31
PC-3 = test system: PC-3
HOP-92 = test system: HOP-92
SW-620 = test system: SW-620
NCI-H460 = test system: NCI-H460
TK-10 = test system: TK-10
RPMI-8226 = test system: RPMI-8226
IGROV-1 = test system: IGROV-1
OVCAR-4 = test system: OVCAR-4
MDA-MB-435 = test system: MDA-MB-435
ACHN = test system: ACHN
OVCAR-3 = test system: OVCAR-3
SK-MEL-28 = test system: SK-MEL-28
K562 = test system: K562
UACC-257 = test system: UACC-257
CCRF-CEM = test system: CCRF-CEM
HT-29 = test system: HT-29
SNB-75 = test system: SNB-75
SR = test system: SR
SK-MEL-5 = test system: SK-MEL-5
NCI-H226 = test system: NCI-H226
HOP-62 = test system: HOP-62
COLO 205 = test system: COLO 205
CAKI-1 = test system: CAKI-1
Malme-3M = test system: Malme-3M
MDA-MB-231 = test system: MDA-MB-231
HCT-116 = test system: HCT-116
SF-268 = test system: SF-268
NCI-H23 = test system: NCI-H23
NCI-H522 = test system: NCI-H522
SNB-19 = test system: SNB-19
HL-60 = test system: HL-60
SN12C = test system: SN12C
SK-MEL-2 = test system: SK-MEL-2
SF-539 = test system: SF-539
SK-OV-3 = test system: SK-OV-3
T47D = test system: T47D

## O=C1CSC(c2ccccc2O)N1c1ccc(Oc2ccc(Cl)cc2)c(Cl)c1 (stereo unspecified)
U-251
  GI50: 17.3 µM (inactive)
Hs-578T
  GI50: 14.9 µM (inactive)
DU-145
  GI50: 21.1 µM (inactive)
KM12
  GI50: 17.5 µM (inactive)
A549
  GI50: 18.4 µM (inactive)
OVCAR-5
  GI50: 21.6 µM (inactive)
M14
  GI50: 29.8 µM (inactive)
MOLT-4
  GI50: 25.9 µM (inactive)
HCC 2998
  GI50: 17.7 µM (inactive)
NCI/ADR-RES
  GI50: 20.6 µM (inactive)
786-0
  GI50: 18.8 µM (inactive)
UACC-62
  GI50: 16.4 µM (inactive)
SF-295
  GI50: 16.3 µM (inactive)
HCT-15
  GI50: 19.5 µM
OVCAR-8
  GI50: 25.5 µM (inactive)
BT-549
  GI50: 13.1 µM (inactive)
LOX IMVI
  GI50: 16.6 µM (inactive)
MCF7
  GI50: 26.6 µM (inactive)
EKVX
  GI50: 16.8 µM (inactive)
UO-31
  GI50: 5.94 µM (inactive)
PC-3
  GI50: 22.3 µM (inactive)
HOP-92
  GI50: 18.7 µM (inactive)
SW-620
  GI50: 31.4 µM (inactive)
NCI-H460
  GI50: 19.4 µM (inactive)
TK-10
  GI50: 36.1 µM (inactive)
RPMI-8226
  GI50: 19.8 µM (inactive)
IGROV-1
  GI50: 8.91 µM (inactive)
OVCAR-4
  GI50: 20.7 µM (inactive)
MDA-MB-435
  GI50: 21.5 µM (inactive)
ACHN
  GI50: 28.2 µM (inactive)
OVCAR-3
  GI50: 18.6 µM (inactive)
SK-MEL-28
  GI50: 19.5 µM (inactive)
K562
  GI50: 29.9 µM (inactive)
UACC-257
  GI50: 26.2 µM (inactive)
CCRF-CEM
  GI50: 17.6 µM (inactive)
HT-29
  GI50: 19.7 µM (inactive)
SNB-75
  GI50: 17.6 µM (inactive)
SR
  GI50: 14.3 µM (inactive)
SK-MEL-5
  GI50: 17.2 µM (inactive)
NCI-H226
  GI50: 30.8 µM (inactive)
HOP-62
  GI50: 18.2 µM (inactive)
COLO 205
  GI50: 18.5 µM (inactive)
CAKI-1
  GI50: 23.3 µM (inactive)
Malme-3M
  GI50: 11.9 µM (inactive)
MDA-MB-231
  GI50: 16.9 µM (inactive)
HCT-116
  GI50: 15.3 µM (inactive)
SF-268
  GI50: 12.9 µM (inactive)
NCI-H23
  GI50: 18.1 µM (inactive)
NCI-H522
  GI50: 15.3 µM (inactive)
SNB-19
  GI50: 22 µM (inactive)
HL-60
  GI50: 16.6 µM (inactive)
SN12C
  GI50: 22.1 µM (inactive)
SK-MEL-2
  GI50: 24.3 µM (inactive)
SF-539
  GI50: 15.7 µM (inactive)
SK-OV-3
  GI50: 21 µM (inactive)
T47D
  GI50: 11.7 µM (inactive)
